Data: US20230002361A1, “2H-INDAZOLE DERIVATIVES AND THEIR USE IN THE TREATMENT OF DISEASE” (BIOGEN MA INC., priority 2019, published 2023)
Structures can show the parent of a compound that is named as a salt. Where two headings read alike, the source gives them in different places.

Tests used:
[1] = target: T1, MDR1 (P-gp) (Homo sapiens, UniProt P08183); experiment: MDR1-MDCK assay (efflux ratio); assay type: in vitro ADME; settings: human, MDCK-MDR1, 1 μM compound, 120 minutes incubation; read-out: MDR1-MDCK Efflux Ratio; (B-A/A-B)
T1 construct: host or cells: MDCK cells
Experimental: • The assay makes use of human MDR1 transfected MDCK cells (NIH cell line in-licensed from Absorption Systems) • The compounds are tested at 1 μM concentration prepared in transport buffer (Hank's balanced salt solution with HEPES) • MDR1-MDCK cell are cultured for 7 days in 96 well transwell insert plates (Corning). Insert plates are washed before the assay and TEER (Trans epithelial electric resistance) is measured. • These plates are loaded with test compound solution 85 μL for A-B transport and 260 μL for B-A transport in the respective donor compartment.
Mass balance=100×((Vr×Cr^final)+(Vd×Cd^final))/(Vd×CE) • Where: • dCr/dt is the cumulative concentration in the receiver compartment versus time in μM s^−1 • Vr is the volume of the receiver compartment in cm^3 • Vd is the volume of the donor compartment in cm^3 • A is the area of the insert (0.143 cm^2 for 96-well insert) • CE is the estimated experimental concentration (Time=0) of the dosing solution • Cr^final is the concentration of the receiver at the end of the incubation period • Cd^final is the concentration of the donor at the end of the incubation period.

[2] = target: T2, IRAK4 (Homo sapiens, UniProt Q9NWZ3); experiment: IRAK4 MSD Biochemical Assay (1 mM ATP, 2 h); settings: room temperature
T2 construct: with 0.1 nM IRAK4, 1.6 μM of biotinylated peptide substrate and 10 μM ATP
T2 sequence (Q9NWZ3 1-460): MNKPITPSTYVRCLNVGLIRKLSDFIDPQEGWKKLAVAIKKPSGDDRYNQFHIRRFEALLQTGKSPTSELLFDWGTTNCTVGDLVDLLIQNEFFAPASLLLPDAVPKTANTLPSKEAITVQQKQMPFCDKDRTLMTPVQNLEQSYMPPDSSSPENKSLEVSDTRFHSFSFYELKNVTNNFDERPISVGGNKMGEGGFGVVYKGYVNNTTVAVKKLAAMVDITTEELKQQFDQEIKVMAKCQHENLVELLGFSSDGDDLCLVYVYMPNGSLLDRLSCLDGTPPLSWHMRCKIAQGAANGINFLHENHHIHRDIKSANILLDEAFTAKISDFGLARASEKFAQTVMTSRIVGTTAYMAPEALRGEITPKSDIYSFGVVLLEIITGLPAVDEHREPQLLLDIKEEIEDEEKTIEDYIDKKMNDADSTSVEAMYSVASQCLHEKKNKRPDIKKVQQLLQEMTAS
Experimental: The 2-hour 10 μM ATP Biochemical Assay employs a MesoScale Detection (MSD) format.
The activity is quenched with 11 μl of 70 mM EDTA, pH 8.
To detect the phosphorylated biotinylated peptide substrate, 30 μl of the quenched reaction mixture is added to equivalent wells of a 384 well streptavidin coated MesoScale plate (Meso Scale Discovery #L21SA-1). After a 1 hour incubation of the plate for 1 hour at room temperature with gentle mixing, the plate wells are washed 3 times with 50 mM Tris, pH 7.5, 150 mM NaCl, 0.02% Tween-20.
A 25 μl volume of 1:500 anti-P-Threonine Rabbit polyclonal Antibody plus 1:500 Goat-anti-Rabbit Sulfo Tag Antibody (Meso Scale Discovery R32AB-1) in 50 mM Tris, pH 7.5, 150 mM NaCl, 0.02% Tween-20 plus 2% BSA is then added to each well. After a 1-hour incubation of the plate for 1 hour at room temperature with gentle mixing, the plate wells are washed, 3 times with 50 mM Tris, pH 7.5, 150 mM NaCl, 0.02% Tween-20. A 40 μl volume of 2×MSD Read Buffer (Meso Scale Discovery R92TC-1) is added to each well, and the plate is read immediately in an MSD Plate Reader (Meso Scale Discovery).
The 2-hour 1 mM ATP IRAK4 Biochemical assay was performed as described above, but with […] IRAK4 and 1 mM ATP.

[3] = read-out: IRAK4 MSD Biochemical Assay (1 mM ATP, 2 h) IC50
[4] = IRAK4 MSD Biochemical Assay (1 mM ATP, 2 h) IC50 (nM)

T1 sequence (P08183 whole entry): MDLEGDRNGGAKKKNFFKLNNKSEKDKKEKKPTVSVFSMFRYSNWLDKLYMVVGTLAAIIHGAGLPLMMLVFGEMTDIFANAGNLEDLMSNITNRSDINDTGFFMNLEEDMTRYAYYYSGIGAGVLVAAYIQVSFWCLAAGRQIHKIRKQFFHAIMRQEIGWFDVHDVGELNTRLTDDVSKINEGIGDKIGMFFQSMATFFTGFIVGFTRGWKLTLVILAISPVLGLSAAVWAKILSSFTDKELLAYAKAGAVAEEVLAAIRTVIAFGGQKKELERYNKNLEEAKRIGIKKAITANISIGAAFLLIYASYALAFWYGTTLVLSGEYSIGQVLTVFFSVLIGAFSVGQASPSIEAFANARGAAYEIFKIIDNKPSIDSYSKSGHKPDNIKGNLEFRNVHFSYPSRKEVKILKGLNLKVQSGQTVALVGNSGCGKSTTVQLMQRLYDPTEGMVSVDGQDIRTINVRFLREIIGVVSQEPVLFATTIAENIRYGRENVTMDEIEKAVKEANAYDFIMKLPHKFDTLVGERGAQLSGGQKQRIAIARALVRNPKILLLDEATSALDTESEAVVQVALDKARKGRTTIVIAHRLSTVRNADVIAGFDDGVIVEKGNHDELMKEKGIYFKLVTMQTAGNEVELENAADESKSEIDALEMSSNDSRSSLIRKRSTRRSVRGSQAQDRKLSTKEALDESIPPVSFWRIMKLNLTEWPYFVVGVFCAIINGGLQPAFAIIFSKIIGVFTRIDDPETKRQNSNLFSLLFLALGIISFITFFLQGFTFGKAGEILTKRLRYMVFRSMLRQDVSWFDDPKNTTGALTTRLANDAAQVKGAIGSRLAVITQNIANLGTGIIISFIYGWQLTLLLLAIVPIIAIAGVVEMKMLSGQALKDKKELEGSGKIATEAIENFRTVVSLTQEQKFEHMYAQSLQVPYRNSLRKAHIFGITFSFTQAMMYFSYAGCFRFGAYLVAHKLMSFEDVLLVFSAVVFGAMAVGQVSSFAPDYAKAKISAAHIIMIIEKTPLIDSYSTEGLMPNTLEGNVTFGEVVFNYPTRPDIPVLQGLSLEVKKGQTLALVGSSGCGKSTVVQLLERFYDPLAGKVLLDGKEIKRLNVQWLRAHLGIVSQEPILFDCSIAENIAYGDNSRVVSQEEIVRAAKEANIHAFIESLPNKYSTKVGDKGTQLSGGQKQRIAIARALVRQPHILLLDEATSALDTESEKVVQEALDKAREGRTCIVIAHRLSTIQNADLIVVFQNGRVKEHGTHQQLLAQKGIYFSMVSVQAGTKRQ

efflux ratio at 120 min, 1 μM [1]	IC50 [2, 3]	SMILES	IC50 [2, 4]
0.7	0.5 nM	CC(C)Oc1cc2nn(C[C@@H]3CCOC3)cc2cc1C(=O)Nc1cccc(C(F)F)n1 (single isomer, unassigned) [Example 21]	
3.4	5.7 nM	Cn1ccc(NC(=O)c2cc3cn(C4CCCOC4)nc3nc2OC2CCC2)n1 (single isomer, unassigned) [Example 129]	
0.6	9.2 nM	COc1cccc(NC(=O)c2cc3cn(C[C@@H]4CCOC4)nc3cc2OC)n1 (single isomer, unassigned) [Example 22]	
0.7	0.5 nM	CC(C)Oc1cc2nn(C[C@H]3CCOC3)cc2cc1C(=O)Nc1cccc(C(F)F)n1 (single isomer, unassigned) [Example 20]	
2.6	1.7 nM	Cc1ccn2ncc(NC(=O)c3cc4cn(C5CCCOC5)nc4nc3OC3CCC3)c2n1 (single isomer, unassigned) [Example 133]	
1.5	0.2 nM	CC(C)Oc1cc2nn([C@H]3CCOC(C)(C)C3)cc2cc1C(=O)Nc1cccc(C(F)F)n1 (single isomer, unassigned) [Example 47]	
1.1	3.7 nM	COCCCn1cc2cc(C(=O)Nc3cccc(OC)n3)c(OC(C)C)nc2n1.Cl [Example 61, 6-Isopropoxy-2-(3-methoxypropyl)-N-(6-methoxypyridin-2-yl)-2H-pyrazolo[3,4-b]pyridine-5-carboxamide hydrochloride]	
0.6	6.2 nM	CC(C)Oc1cc2nn(C3COC3)cc2cc1C(=O)Nc1cccc(C(F)F)n1 [Example 30, N-(6-(difluoromethyl)pyridin-2-yl)-6-isopropoxy-2-(oxetan-3-yl)-2H-indazole-5-carboxamide]	
1.4	2 nM	Cc1cccc(NC(=O)c2cc3cn(C4CCOCC4)nc3cc2OC(C)C)c1F [Example 68, N-(2-fluoro-3-methylphenyl)-6-isopropoxy-2-(tetrahydro-2H-pyran-4-yl)-2H-indazole-5-carboxamide]	
5.7	0.7 nM	COc1ncccc1NC(=O)c1cc2cn(CCC(C)(C)O)nc2nc1OC(C)C [Example 40, 2-(3-Hydroxy-3-methylbutyl)-6-isopropoxy-N-(2-methoxypyridin-3-yl)-2H-pyrazolo[3,4-b]pyridine-5-carboxamide]	
2.6	0.2 nM	Cc1cnc2c(NC(=O)c3cc4cn(C5CCCOC5)nc4nc3OC3CCC3)cnn2c1 (single isomer, unassigned) [Example 131]	
2.1	0.2 nM	CC12CCC(n3cc4cc(C(=O)Nc5cnn6cccnc56)c(OC5CCC5)cc4n3)(CO1)C2 (single isomer, unassigned) [Example 137]	
5.9	9.9 nM	CC(C)Oc1nc2nn(CC3CCOC3)cc2cc1C(=O)Nc1cc(F)cn(C)c1=O (stereo not drawn) [Example 81, N-(5-fluoro-1-methyl-2-oxo-1,2-dihydroxypyridin-3-yl)-6-isopropxy-2-((tetrahydrofuran-3-yl)methyl)-2H-pyrazolo[3,4-b]pyridine-5-carboxamide]	
0.9	1.3 nM	CC(C)Oc1cc2nn(C3CCOCC3)cc2cc1C(=O)Nc1cccc2ccnn12 [Example 51, 6-Isopropoxy-N-(pyrazolo[1,5-a]pyridin-7-yl)-2-(tetrahydro-2H-pyran-4-yl)-2H-indazole-5-carboxamide]	
1.1	32.7 nM	COc1cccc(NC(=O)c2cc3cn(CC4CCOC4)nc3cc2OC)n1.O=C(O)C(F)(F)F (stereo not drawn) [Example 1, 6-Methoxy-N-(6-methoxypyridin-2-yl)-2-((tetrahydrofuran-3-yl)methyl)-2H-indazole-5-carboxamide Trifluoroacetate]	
1.5	1.8 nM	Cn1cccc(NC(=O)c2cc3cn(C[C@H]4CCOC4)nc3nc2OC2CCCC2)c1=O (single isomer, unassigned) [Example 114]	
4.2	0.4 nM	Cc1cnc2c(NC(=O)c3cc4cn(C[C@H]5CCOC5)nc4nc3OC3CCC3)cnn2c1 (single isomer, unassigned) [Example 122]	
0.9	1.9 nM	CC(C)Oc1cc2nn(C34CCC(C)(CC3)OC4)cc2cc1C(=O)Nc1ccn(C)n1 [Example 103, 6-Isopropoxy-N-(1-methyl-1H-pyrazol-3-yl)-2-(1-methyl-2-oxabicyclo[2.2.2]octan-4-yl)-2H-indazole-5-carboxamide]	
1.1	20 nM	CC(C)Oc1c(C(=O)Nc2cccc(C(F)F)n2)cc2cn(C3CCOCC3)nc2c1Cl [Example 124, 7-Chloro-N-(6-(difluoromethyl)pyridin-2-yl)-6-isopropoxy-2-(tetrahydro-2H-pyran-4-yl)-2H-indazole-5-carboxamide Trifluoroacetate]	
1.1	0.8 nM	CC(C)Oc1cc2nn(C34CCC(C)(C3)OC4)cc2cc1C(=O)Nc1cccn(C)c1=O (stereo not drawn) [Example 57, 6-Isopropoxy-N-(1-methyl-2-oxo-1,2-dihydropyridin-3-yl)-2-(1-methyl-2-oxabicyclo[2.2.1]heptan-4-yl)-2H-indazole-5-carboxamide]	
1.7	0.4 nM	CC(C)Oc1cc2nn(CCC(C)(C)O)cc2cc1C(=O)Nc1cccc(C(F)F)n1 [Example 13, N-(6-(difluoromethyl)pyridin-2-yl)-2-(3-hydroxy-3-methylbutyl)-6-isopropoxy-2H-indazole-5-carboxamide]	
4.6	9.5 nM	CC(C)Oc1cc2nn(C3CCOCC3)cc2cc1C(=O)Nc1ccn(C)n1 [Example 67, 6-Isopropoxy-N-(1-methyl-1H-pyrazol-3-yl)-2-(tetrahydro-2H-pyran-4-yl)-2H-indazole-5-carboxamide]	
1	1.5 nM	CC(C)Oc1nc2nn(C[C@H]3CCOC3)cc2cc1C(=O)Nc1cccc2ccnn12 (single isomer, unassigned) [Example 53]	

SMILES	efflux ratio at 120 min, 1 μM [1]	IC50 [2, 3]	IC50 [2, 4]
CC(C)Oc1nc2nn(C[C@H]3CCOC3)cc2cc1C(=O)Nc1cnn2cccnc12 (single isomer, unassigned) [Example 118]	3.1		0.8 nM
CCOc1cc2nn(C34COC(C)(C3)C4)cc2cc1C(=O)Nc1cccn(C)c1=O [Example 86, 6-Ethoxy-N-(1-methyl-2-oxo-1,2-dihydropyridin-3-yl)-2-(1-methyl-2-oxabicyclo[2.1.1]hexan-4-yl)-2H-indazole-5-carboxamide tfifluoroacetate]	1.8		3.7 nM
Cl.O=C(Nc1cccc(C(F)F)n1)c1cc2cn(C3CCOCC3)nc2cc1O[C@H]1C[C@H](C(F)F)C1 [Example 48, 6-((1R,3R)-3-(difluoromethyl)cyclobutoxy)-N-(6-(difluoromethyl)pyridin-2-yl)-2-(tetrahydro-2H-pyran-4-yl)-2H-indazole-5-carboxamide Hydrochloride]	1.3	0.5 nM	
CC(C)Oc1nc2nn(C[C@@H]3CCOC3)cc2cc1C(=O)Nc1cnn2cccnc12 (single isomer, unassigned) [Example 119]	3		1 nM
